Where two headings read alike, the source gives them in different places.
Legend:
[1] = tested on: patients with psychogenic impotence; assay: Pilot Study #3: aqueous intranasal spray (1.25 mg per puff), […] erectile response, adverse effects; format: in vivo, human
Source text: The first patient was an anxious person who had been experiencing erectile dysfunction for two years.

[2] = in vivo; for Vd (SS) / Vd (beta): male, human
[3] = tested on: men with psychogenic male erectile dysfunction (MED); assay: Pilot Study #6: safety and tolerance of escalating APO doses (adverse events, serum chemistry, vital signs)
Method: A clinical study of patient tolerance of escalating doses in sublingual tablet administration of APO for the treatment of psychogenic male erectile dysfunction was performed.
In the second phase, subjects returned to the clinic for four visits, each visit one week apart. Subjects received one sublingual administration of either placebo, or 4, 6 and 8 mg APO at each visit. Doses of APO were administered in ascending order with the placebo being randomly assigned for use at one of the four visits. The procedures performed before and after drug administration were the same as those in the first phase.
Fifty males with psychogenic MED were enrolled in this three phase trial. The first aim of this study was to determine the safety and tolerance of APO in the treatment of MED.

[4] = intranasal 2.5 mg, Patient No. 2

## CN1CCc2cccc3c2[C@H]1Cc1ccc(O)c(O)c1-3 [apomorphine]
[1]; [4]
  adverse effects: major hemodynamic adverse effects
  blood pressure (hypotension): 70/50
[1]; intranasal 2.5 mg, Patient No. 2, ten minutes post-dosing
  total yawns: five
[1]; intranasal administration
  erectile response: effective in eliciting an erection
[1]; intranasal spray 2.5 mg, 3.75 mg, first patient, categorized as a failure
  score on both erotic and neutral video segments: less than sixteen
[1]; intranasal spray, first patient, after inadvertently increased dose
  time to adverse effects (nausea and vomiting, dizziness, blurred vision, diaphoresis): five
[2]
  plasma concentration compared with previous reports (Table XVI): produced a lower plasma concentration
[2]; 4 mg
  Vd (SS): 1.836 mL
  Vd (beta): 4.076 mL
[2]; 8 mg
  Vd (SS): 46.30 mL
  Vd (beta): 69.09 mL
[3]; 4, 6, 8 mg sublingual, with bradycardia, dizziness, syncope, pallor
  cardiovascular and other adverse events: Hypotension was reported as an adverse event in some subjects
[3]; all administered doses
  incidence of vomiting: less than 3%
  nausea cases considered severe: two
[3]; all administered doses (4, 6, 8 mg sublingual)
  overall incidence of nausea: less than 13 % of the subjects
[3]; except one subject with abnormal liver function of unknown origin
  changes in serum chemistry values and vital signs: no clinically significant changes
